The subject of data set [1] is Rodococcus baikoneurensis EN3. Nature of the data set: Biosurfactant's ability to increase diesel oil degradation by Rodococcus baikoneurensis EN3. The data set is classed as cell-based. Particulars: initial diesel 20,000 ppm; acid 10 ppm, 50 ppm and 100 ppm; about 30% without acid. The procedure:
(§1) For this reason, 2-hexyl-3-hydroxy-decanoic acid having 16 carbon atoms according to the present invention was added liquid media each containing 10,000 ppm or 20,000 ppm of diesel oil and mineral medium (NH4NO3, 1 g/L; MgSO4, 0.2 g/L; CaCl2, 0.02 g/L; FeCl2, 0.05 g/L; KH2PO4, 1 g/L; K2HPO4, 1 g/L; pH 7.0). Then, the media were inoculated with each of Rodococcus baikoneurensis EN3 of Example 2 and Gordonia nitida NP1 of Example 6 and cultured at 30° C. for 7 days. Then, an increase in the oil biodegradability of each of the microbial strains was measured using gas chromatography.
FIG. 9 is a graphic diagram showing an increase in the diesel oil degradability of Rodococcus baikoneurensis EN3, caused by the synthetic biosurfactant 2-hexyl-3-hydroxy-decanoic acid, at an initial diesel concentration of 20,000 ppm. In FIG. 9, the initial inoculation level of Rodococcus baikoneurensis EN3 is 6×10^4 cfu/ml, and the initial concentration of diesel oil is 20,000 ppm. Also, the initial concentrations of 2-hexyl-3-hydroxy-decanoic acid are 10 ppm (∘), 50 ppm (□) and 100 ppm (Δ), the symbol “•” indicates a microorganism-uninoculated group (control group 1), and the symbol “▪” indicates a group (control group 2), which was inoculated with microorganisms, but not injected with 2-hexyl-3-hydroxy-decanoic acid.

Data set [2] concerns mixed cultured strain of Examples 2, 6 and 7. As to the kind of experiment: Microbial growth promotion of biosurfactant 2-hexyl-3-hydroxy-decanoic acid (cfu per ml after culture). Particulars: 0.1 in composition of Examples 16 and 17. The class given is cell-based. The procedure: These examples relate to an experiment of confirming whether the growth of microorganisms having oil biodegradability is promoted due to the addition of biosurfactant 2-hexyl-3-hydroxy-decanoic acid.
In this experiment, the mixed cultured strain of Examples 2, 6 and 7 was added to tryptic soy broth (TSB) and then cultured for 13 hours. In the culture process, the microbial strain was added into a 100-ml flask at an initial concentration of 4.9×10^6 cfu/ml to a work volume of 10 ml, and the inoculation level of the strain was 1% (w/v), i.e., 0.1 ml.
In Comparative Examples 7-10 and Examples 16 and 17, the microbial strain was cultured in media (10 g/L) at 30° C. for 24 hours, and then measured for colony-forming units (cfu) per ml to determine the degree of proliferation of microorganisms.
Specifically, a composition used in Comparative Examples 7-10 consisted of glucose, yeast extract, malt extract, Na2HPO4, KH2PO4, K2HPO4, MgSO4, CaCl2, FeSO4, CoCl2, ZnSO4, CuSO4 and MnSO4, and a composition used in Examples 16 and 17 consisted of glucose, yeast extract, malt extract, Na2HPO4, KH2PO4, K2HPO4, MgSO4, CaCl2, FeSO4, CoCl2, ZnSO4, CuSO4 and MnSO4, to which the biosurfactant 2-hexyl-3-hydroxy-decanoic acid was added.

In data set [3] the test system is Gordonia nitida NP1. Nature of the data set: Biosurfactant's ability to increase diesel oil degradation by Gordonia nitida NP1. The data set is classed as cell-based. Particulars: acid 9 ppm. The procedure: as §1
FIG. 10 is a graphic diagram showing an increase in the diesel oil degradability of Gordonia nitida NP1, caused by the synthetic biosurfactant 2-hexyl-3-hydroxy-decanoic acid, at an initial diesel concentration of 15,000 ppm. In FIG. 10, the initial inoculation level of […] is 6×10^4 cfu/ml, and the initial concentration of diesel oil is 15,000 ppm. Also, the initial concentrations of 2-hexyl-3-hydroxy-decanoic acid were 9 ppm (▾), 90 ppm (∇) and 900 ppm (▪), the symbol “[…]” indicates a microorganism-uninoculated group (control group 1), and the symbol “∘” indicates a group (control group 2), which was inoculated with microorganisms, but not injected with 2-hexyl-3-hydroxy-decanoic acid. […]

Data set [4] can be described thus: Critical micelle concentration. The class given is physicochemical.

Turning to `CCCCCCCC(O)C(CCCCCC)C(=O)O` (centres unmarked) [2-hexyl-3-hydroxy-decanoic acid], the “oil biodegradation rate of the microbial strain with acid added” value in data set [1] is “about 70%”. Besides, the “effect of addition on growth of the microorganisms” value in data set [2] was “promotion of growth”. In addition, the “change in diesel oil degradation rate of the microbial strain with acid added” value in data set [3] (90 ppm and 900 ppm, initial diesel 15,000 ppm and 20,000 ppm (FIGS. 10, 11)) is “great increase”. In data set [3] (initial diesel 20,000 ppm), the “change in oil degradation rate of the microbial strain with acid added” value is “did not show an increase”. Moreover, in data set [4], the “critical micelle concentration (cmc)” value is listed as 37.1 ppm.

The values above are taken from patent publication US20080020947A1, “Novel microorganisms having oil biodegradability and method for bioremediation of oil-contaminated soil” (priority 2006, published 2008).
